Laboratory results taken from patent publication US20120164117A1, “METHODS OF GENERATING HUMAN CARDIAC CELLS AND TISSUES AND USES THEREOF” (TECHNION RESEARCH & DEVELOPMENT FOUNDATION LTD., priority 2001, published 2012).
Read-outs that look alike come from different tables or passages of the source.

What was measured:
[1] = system: human embryonic stem cell-derived cardiomyocytic tissue (contracting embryoid bodies); test: Pharmacological analysis of conduction, multielectrode array activation mapping of embryoid bodies; format: cell-based; set-up: Global Velocity / Mean CV Vector: unit not given here; conditions: for total activation time: one embryoid body
[2] = system: human embryonic stem cell-derived cardiomyocytic cells (contracting embryoid bodies); test: Chronotropic responses of contracting embryoid bodies, multielectrode array extracellular recordings; format: cell-based; conditions: for spontaneous contraction rate, % of baseline (initial) value: drug at 10^−6 M (1 μM)
Text: Multielectrode array (MEA) extracellular electrophysiology mapping and pharmacological studies: Intact contracting areas within the embryoid bodies were mechanically dissected using a pulled-glass micropipette and plated on gelatin-coated multielectrode arrays (Multi Channel Systems MCS GmbH, Reutlingen, Germany; Igelmund, P. et al., 1999. Pflugers Arch. 437: 669). The microelectrode array consists of 60 titanium nitride electrodes with gold contacts 30 μm in diameter with an interelectrode distance of 100-200 μm. The contracting areas were plated on top of the microelectrode arrays and cells were grown to confluence over the electrodes. […] Extracellular signals were recorded simultaneously from all 60 electrodes at 25 kHz and band-pass filtered from 1 to 3000 Hz. Recordings were performed in culture medium at 37° C. A pH of 7.4 was maintained using perfusion with an atmosphere containing 5% CO2 and 95% air. Chronotropic responses were assessed by extracellular recordings for 10 minutes prior to and following […], 1 μM carbamylcholine, 10 μM 3-isobutyl-1-methylxanthine (IBMX), or 1 μM forskolin (all from Sigma). Statistical analysis: Data are expressed as mean ±standard deviation. In order to assess possible chronotropic effects, the average spontaneous beating rate was compared prior to and following drug application using two-tailed paired Student's t test.

[3] = system: swine model of complete atrioventricular block; test: Swine complete atrioventricular block model transplanted with human ES cell-derived cardiomyocytic cells, rate of new ventricular rhythm; format: in vivo; conditions: following isoproterenol (20 μM); rate before 68±4 beats/minute
[4] = system: hybrid rat ventricular myocyte-human embryonic stem cell-derived cardiomyocyte co-cultures; test: Electrical coupling in hybrid human ES cell-derived cardiomyocyte / neonatal rat ventricular myocyte co-cultures on microelectrode array; format: cell-based
Description: Performed as described above in Example 2 of the Examples section. Primary monolayer cultures of neonatal rat (Sprague Dawley) ventricular myocytes were prepared as previously described (Fast V G. and Kleber A G., 1993. Circ Res. 73:914). Briefly, following excision, the ventricles were minced and treated with RDB (IIBR, Ness-Ziona, Israel). Dispersed cells were then cultured on gelatin coated (0.1%) microelectrode array plates or on glass cover slips at a density of 1.5×10^6 cells/ml. […] Pacing studies in co-cultures were performed by electrically stimulating the human or rat tissues with one of the electrodes of the multielectrode array. The degree of electrical coupling between the two tissue types was also assessed during long term recordings and during adrenergic stimulation and partial gap junction uncoupling. The cycle-lengths of the electrical activity in the ES cell-derived cardiomyocytes and in the rat tissue were measured and a histogram depicting the ratio between these two cycle-lengths during long-term recordings is shown in FIG. 16i.

[5] = system: human embryonic stem cell line H9.2 embryoid bodies; test: Cardiomyocyte differentiation efficiency, percentage of contracting embryoid bodies; format: cell-based
Text: Generation of human embryonic stem cell-derived cardiomyocytic cells: Ten different human embryonic stem cell lines including line H9 or its single cell clonal derivative H9.2 (Amit, M. et al., 2000. Dev. Biol. 227: 271) were individually grown on a mitotically inactivated (mitomycin C) mouse embryonic fibroblast feeder cell layer in culture medium, as previously described (Thomson, J. A. et al., 1998. Science 282: 1145). The culture medium consisted of 80% knockout DMEM (no-pyruvate, high-glucose formulation; Life Technologies, Inc., Rockville, Md., USA.) supplemented with 20% FBS (HyClone, Logan, Utah, USA.), 1 mM L-glutamine, 0.1 mM mercaptoethanol, and 1% nonessential amino acid stock (all from GIBCO-BRL). To induce differentiation, embryonic stem cells were dispersed into small clumps (3-20 cells) using collagenase IV (Life Technologies, Inc., 1 mg/ml for 20 minutes). […] The percentage of embryoid bodies displaying contracting areas, as well as the distribution of the timing of onset of spontaneous beating were evaluated. […] In addition, the effect of DMSO, a known stimulant of differentiation into cardiomyocytic lineage was assessed by adding dimethyl sulfoxide (Sigma Chemical Co., St. Louis, Mo., USA.) at a concentration of 0.75% (vol/vol) to the culture medium during the 10 days of growth in suspension. […]

[6] = extracellular potassium 10 mM, n=7
[7] = extracellular potassium 15 mM, n=7
[8] = extracellular potassium 20 mM, n=7

COc1ccc([C@@H]2Sc3ccccc3N(CCN(C)C)C(=O)[C@@H]2OC(C)=O)cc1.Cl [Diltiazem, diltiazem hydrochloride]
Global Velocity [1]: 2.8 ± 2.0
Maximal − dv/dt [1]: 2.5 ± 4.2 mV/sec
Mean CV Vector [1]: 5.7 ± 4.2
changes in the conduction parameters studied (global velocity, local velocity vector, −dV/dtmax) [1]: did not result in significant changes

C=C[C@@]1(C)CC(=O)[C@]2(O)[C@@]3(C)[C@@H](O)CCC(C)(C)[C@@H]3[C@H](O)[C@H](OC(C)=O)[C@@]2(C)O1 [forskolin]
spontaneous contraction rate, % of baseline (initial) value ([2]; mean ± SD): 182±48%

CC(C)NCC(O)c1ccc(O)c(O)c1 (centres unmarked) [Isoproterenol, isoproterenol]
chronotropic response of contracting embryoid bodies ([2]; 10 μM isoproterenol): positive chronotropic responses
spontaneous contraction rate, % of baseline (initial) value ([2]; mean ± SD): 146±43%
heart rate of the new ventricular rhythm [3]: 105±10 beats/minute
electrical coupling between the two cell types ([4]; isoproterenol 10 μM): not hindered
spontaneous beating rate ([4]; isoproterenol 10 μM, base line 1.6±0.6 Hz, p<0.05): 1.9±0.8 Hz

C[S+](C)[O-] [DMSO, dimethyl sulfoxide]
increase of the percentage of embryoid bodies with cells displaying cardiac lineage differentiation ([5]; 0.75 percent (v/v) dimethyl sulfoxide): about 20%
percentage of embryoid bodies demonstrating contracting areas ([5]; DMSO 0.75% (vol/vol) during suspension, 8.1% without): 10.1%

CC(C)Cn1c(=O)n(C)c(=O)c2[nH]cnc21 [IBMX, 3-isobutyl-1-methylxanthine]
spontaneous contraction rate, % of initial value ([2]; 10 μM IBMX, n=6, mean ± SD): 152±77%

C[N+](C)(C)CCOC(N)=O.[Cl-] [carbamylcholine]
spontaneous contraction rate, % of baseline (initial) value ([2]; mean ± SD): 78±20%

NC1=N[C@H](O)[C@H]2[C@H]3O[C@]4(O)O[C@@H]([C@@H](O)[C@@]2(N1)[C@@H]4O)[C@]3(O)CO [TTX, tetrodotoxin]
Global Velocity [1]: 1.8 ± 0.9
Maximal − dv/dt [1]: 1.9 ± 1.9 mV/sec
Mean CV Vector [1]: 3.2 ± 3
total microelectrode array activation time [1]: 35 milliseconds

CN1[C@@H]2CC[C@H]1C[C@@H](OC(=O)C(CO)c1ccccc1)C2 (some centres unmarked) [atropine]
effect on carbamylcholine-induced decrease of spontaneous contraction rate [2]: reversed

[K+] [Potassium]
Global Velocity [1, 6]: 1.6 ± 0.6
Maximal − dv/dt [1, 6]: 2.7 ± 5.5 mV/sec
Mean CV Vector [1, 6]: 3.5 ± 4.2
total activation time ([1]; extracellular potassium 10 mM, baseline 25 milliseconds): 40 milliseconds
Global Velocity [1, 7]: 1.0 ± 0.3
Maximal − dv/dt [1, 7]: 1.1 ± 1.4 mV/sec
Mean CV Vector [1, 7]: 2.0 ± 2.3
total activation time ([1]; extracellular potassium 15 mM, baseline 25 milliseconds): 70 milliseconds
Global Velocity [1, 8]: 1.0 ± 0.4
Maximal − dv/dt [1, 8]: 1.1 ± 1.2 mV/sec
Mean CV Vector [1, 8]: 1.5 ± 1
total activation time ([1]; extracellular potassium 20 mM, baseline 25 milliseconds): 120 milliseconds

CCCCCCCO [Heptanol, 1-Heptanol]
total activation time ([1]; 1-heptanol 0.3 mM, baseline 15 milliseconds): 32 milliseconds
effect of higher doses on beating ([1]; 1-heptanol 0.6 and 1 mM, n=8): complete cessation of beating
Global Velocity ([1]; heptanol 0.3 mM, n=7): 1.7 ± 0.6
Maximal − dv/dt ([1]; heptanol 0.3 mM, n=7): 2.0 ± 2.3 mV/sec
Mean CV Vector ([1]; heptanol 0.3 mM, n=7): 3.0 ± 5.7
Global Velocity ([1]; heptanol 0.6 mM): 1.2 ± 0.9
Maximal − dv/dt ([1]; heptanol 0.6 mM): 2.1 ± 3.0 mV/sec
Mean CV Vector ([1]; heptanol 0.6 mM): 3.0 ± 3.8
Global Velocity ([1]; heptanol 1 mM): No conduction
Maximal − dv/dt ([1]; heptanol 1 mM): No conduction
Mean CV Vector ([1]; heptanol 1 mM): No conduction
co-cultures in which tight coupling was not altered ([4]; 1-Heptanol 0.5 mM): 5 of the 8
co-cultures with occasional episodes of 2:1 conduction block ([4]; 1-Heptanol 0.5 mM, 8 co-cultures studied): 3
